Laboratory results as given in US20230398130A1, “METHODS AND COMPOSITIONS FOR DIFFERENTIATING STEM CELLS” (Massachusetts Institute of Technology, priority 2020, published 2023).

Assays:
ISC-enriched organoids [1] = assay: Primary screen, 384-well 2.5-D organoid differentiation (ENR+CD, 6 days): carbachol-induced lysozyme secretion (LYZ.S); format: cell-based, murine; settings: for Dose.FC.LYZ.S / Z.LYZ.S / SSMD.LYZ.S: primary screen; for Dose.FC.LYZ.S: FC vs plate median; for Z.LYZ.S: standard z score; for SSMD.LYZ.S: strictly standardized mean difference; for Dose.FC.LYZ.S (log 2 fold change, carbachol-induced lysozyme secretion): vs plate median
Source text: (§1) High-throughput screening.

ISC-enriched organoids [2] = assay: Primary screen, 384-well 2.5-D organoid differentiation (ENR+CD, 6 days): basal lysozyme secretion (LYZ.NS); format: cell-based, murine; settings: for Dose.FC.LYZ.NS: FC vs plate median; for SSMD.LYZ.NS: strictly standardized mean difference; for Dose.FC.LYZ.NS (log 2 fold change, basal lysozyme secretion): vs plate median
Source text: as §1

ISC-enriched organoids [3] = assay: Primary screen, 384-well 2.5-D organoid differentiation (ENR+CD, 6 days, Target Selective Inhibitor Library, vs whole-plate median): ATP (CellTiter-Glo 3D, CTG); settings: for Dose.FC.CTG: FC vs plate median; for SSMD.CTG: strictly standardized mean difference; for Dose.FC.CTG (log 2 fold change, ATP): vs plate median
[4] = 1st of the 4 dose lines of the treatment (dose not given)
[5] = 2nd of the 4 dose lines of the treatment (dose not given)
[6] = 3rd of the 4 dose lines of the treatment (dose not given)
[7] = 4th of the 4 dose lines of the treatment (dose not given)
[8] = Dose 0.08 uM, primary screen, standard z score
[9] = Dose 0.40 uM, primary screen, standard z score
[10] = Dose 2.00 uM, primary screen, standard z score
[11] = Dose 10.00 uM, primary screen, standard z score
[12] = primary screen, 1st of the 4 dose lines of the treatment (dose not given)
[13] = primary screen, 2nd of the 4 dose lines of the treatment (dose not given)
[14] = primary screen, 3rd of the 4 dose lines of the treatment (dose not given)
[15] = primary screen, 4th of the 4 dose lines of the treatment (dose not given)
[16] = Dose 0.08 uM, standard z score of FC
[17] = Dose 0.40 uM, standard z score of FC
[18] = Dose 2.00 uM, standard z score of FC
[19] = Dose 10.00 uM, standard z score of FC

Row | Compound | Dose.FC.LYZ.S (ISC-enriched organoids [1]; Dose 0.08 uM) | Dose.FC.LYZ.S (ISC-enriched organoids [1]; Dose 0.40 uM) | Dose.FC.LYZ.S (ISC-enriched organoids [1]; Dose 2.00 uM) | Dose.FC.LYZ.S (ISC-enriched organoids [1]; Dose 10.00 uM) | Z.LYZ.S (ISC-enriched organoids [1]; [4]) | Z.LYZ.S (ISC-enriched organoids [1]; [5]) | Z.LYZ.S (ISC-enriched organoids [1]; [6]) | Z.LYZ.S (ISC-enriched organoids [1]; [7]) | SSMD.LYZ.S (ISC-enriched organoids [1]; [4]) | SSMD.LYZ.S (ISC-enriched organoids [1]; [5]) | SSMD.LYZ.S (ISC-enriched organoids [1]; [6]) | SSMD.LYZ.S (ISC-enriched organoids [1]; [7]) | SSMD.LYZ.NS (ISC-enriched organoids [2]; [12]) | SSMD.LYZ.NS (ISC-enriched organoids [2]; [13]) | SSMD.LYZ.NS (ISC-enriched organoids [2]; [14]) | SSMD.LYZ.NS (ISC-enriched organoids [2]; [15]) | SSMD.CTG (ISC-enriched organoids [3]; [12]) | SSMD.CTG (ISC-enriched organoids [3]; [13]) | SSMD.CTG (ISC-enriched organoids [3]; [14]) | SSMD.CTG (ISC-enriched organoids [3]; [15]) | other results
1 | I-BET151 (GSK1210151A) | −0.242 log 2 fold change | −0.344 log 2 fold change | −0.416 log 2 fold change | −0.408 log 2 fold change | −1.563 | −2.225 | −2.687 | −2.641 | −1.087 | −1.784 | −1.815 | −1.694 | −0.856 | −1.677 | −1.629 | −1.342 | −0.045 | −0.433 | −1.788 | −2.304 | Dose.FC.LYZ.NS (ISC-enriched organoids [2]; Dose 0.08 uM, primary screen): −0.116 log 2 fold change; Z.LYZ.NS (ISC-enriched organoids [2]; [8]): −1.010; Dose.FC.LYZ.NS (ISC-enriched organoids [2]; Dose 0.40 uM, primary screen): −0.248 log 2 fold change; Z.LYZ.NS (ISC-enriched organoids [2]; [9]): −2.159; Dose.FC.LYZ.NS (ISC-enriched organoids [2]; Dose 2.00 uM, primary screen): −0.299 log 2 fold change; Z.LYZ.NS (ISC-enriched organoids [2]; [10]): −2.601; Dose.FC.LYZ.NS (ISC-enriched organoids [2]; Dose 10.00 uM, primary screen): −0.284 log 2 fold change; Z.LYZ.NS (ISC-enriched organoids [2]; [11]): −2.473; Dose.FC.CTG (ISC-enriched organoids [3]; Dose 0.08 uM, primary screen): −0.016 log 2 fold change; Z.CTG (ISC-enriched organoids [3]; [8]): −0.039; Dose.FC.CTG (ISC-enriched organoids [3]; Dose 0.40 uM, primary screen): −0.174 log 2 fold change; Z.CTG (ISC-enriched organoids [3]; [9]): −0.415; Dose.FC.CTG (ISC-enriched organoids [3]; Dose 2.00 uM, primary screen): −0.502 log 2 fold change; Z.CTG (ISC-enriched organoids [3]; [10]): −1.200; Dose.FC.CTG (ISC-enriched organoids [3]; Dose 10.00 uM, primary screen): −0.935 log 2 fold change; Z.CTG (ISC-enriched organoids [3]; [11]): −2.233
2 | CCOC(=O)N1CCC(=C2c3ccc(Cl)cc3CCc3cccnc32)CC1 [Loratadine] |  |  |  |  | −0.490 | 0.069 | −0.959 | −0.956 | −0.535 | 0.082 | −0.811 | −1.029 | 0.098 | −0.004 | −0.783 | −0.977 | −0.683 | 0.535 | −0.609 | −0.360 | Z.CTG (ISC-enriched organoids [3]; [8]): −0.697; Z.CTG (ISC-enriched organoids [3]; [9]): 0.347; Z.CTG (ISC-enriched organoids [3]; [10]): −0.488; Z.CTG (ISC-enriched organoids [3]; [11]): −0.287
3 | O=C(O[C@H]1C[C@H]2CC[C@@H](C1)[N+]21CCCC1)C(O)(c1ccccc1)c1ccccc1 [Trospium chloride] |  |  |  |  |  |  |  |  |  |  |  |  |  |  |  |  |  |  |  |  | Dose.FC.LYZ.S (log 2 fold change, carbachol-induced lysozyme secretion) (ISC-enriched organoids [1]; dose 0.08 uM): 0.119; Dose.FC.LYZ.S (log 2 fold change, carbachol-induced lysozyme secretion) (ISC-enriched organoids [1]; dose 0.40 uM): 0.117; Dose.FC.LYZ.S (log 2 fold change, carbachol-induced lysozyme secretion) (ISC-enriched organoids [1]; dose 2.00 uM): −0.008; Dose.FC.LYZ.S (log 2 fold change, carbachol-induced lysozyme secretion) (ISC-enriched organoids [1]; dose 10.00 uM): 0.084; Z.LYZ.NS (standard z score) (ISC-enriched organoids [2]; dose 0.08 uM): 1.470; Dose.FC.LYZ.NS (log 2 fold change, basal lysozyme secretion) (ISC-enriched organoids [2]; dose 0.08 uM): 0.169; Z.LYZ.NS (standard z score) (ISC-enriched organoids [2]; dose 0.40 uM): 1.895; Dose.FC.LYZ.NS (log 2 fold change, basal lysozyme secretion) (ISC-enriched organoids [2]; dose 0.40 uM): 0.218; Z.LYZ.NS (standard z score) (ISC-enriched organoids [2]; dose 2.00 uM): −0.017; Dose.FC.LYZ.NS (log 2 fold change, basal lysozyme secretion) (ISC-enriched organoids [2]; dose 2.00 uM): −0.002; Z.LYZ.NS (standard z score) (ISC-enriched organoids [2]; dose 10.00 uM): 0.885; Dose.FC.LYZ.NS (log 2 fold change, basal lysozyme secretion) (ISC-enriched organoids [2]; dose 10.00 uM): 0.102; Z.CTG (standard z score) (ISC-enriched organoids [3]; dose 0.08 uM): 0.199; Dose.FC.CTG (log 2 fold change, ATP) (ISC-enriched organoids [3]; dose 0.08 uM): 0.083; Z.CTG (standard z score) (ISC-enriched organoids [3]; dose 0.40 uM): −0.073; Dose.FC.CTG (log 2 fold change, ATP) (ISC-enriched organoids [3]; dose 0.40 uM): −0.031; Z.CTG (standard z score) (ISC-enriched organoids [3]; dose 2.00 uM): 0.477; Dose.FC.CTG (log 2 fold change, ATP) (ISC-enriched organoids [3]; dose 2.00 uM): 0.200; Z.CTG (standard z score) (ISC-enriched organoids [3]; dose 10.00 uM): 0.354; Dose.FC.CTG (log 2 fold change, ATP) (ISC-enriched organoids [3]; dose 10.00 uM): 0.148
4 | COc1ccc(-c2cnc3c(-c4cccc5ncccc45)cnn3c2)cc1 [ML347] | 0.094 log 2 fold change | 0.111 log 2 fold change | 0.072 log 2 fold change | −0.202 log 2 fold change | 0.608 | 0.715 | 0.467 | −1.303 | 0.546 | 0.729 | 0.450 | −1.245 | 1.159 | 1.286 | 0.509 | −0.643 | 0.464 | 0.557 | 0.403 | −0.307 | Dose.FC.LYZ.NS (ISC-enriched organoids [2]; Dose 0.08 uM, primary screen): 0.124 log 2 fold change; Z.LYZ.NS (ISC-enriched organoids [2]; [16]): 1.079; Dose.FC.LYZ.NS (ISC-enriched organoids [2]; Dose 0.40 uM, primary screen): 0.132 log 2 fold change; Z.LYZ.NS (ISC-enriched organoids [2]; [17]): 1.150; Dose.FC.LYZ.NS (ISC-enriched organoids [2]; Dose 2.00 uM, primary screen): 0.069 log 2 fold change; Z.LYZ.NS (ISC-enriched organoids [2]; [18]): 0.600; Dose.FC.LYZ.NS (ISC-enriched organoids [2]; Dose 10.00 uM, primary screen): −0.124 log 2 fold change; Z.LYZ.NS (ISC-enriched organoids [2]; [19]): −1.078; Dose.FC.CTG (ISC-enriched organoids [3]; Dose 0.08 uM, primary screen): 0.184 log 2 fold change; Z.CTG (ISC-enriched organoids [3]; [16]): 0.439; Dose.FC.CTG (ISC-enriched organoids [3]; Dose 0.40 uM, primary screen): 0.209 log 2 fold change; Z.CTG (ISC-enriched organoids [3]; [17]): 0.500; Dose.FC.CTG (ISC-enriched organoids [3]; Dose 2.00 uM, primary screen): 0.137 log 2 fold change; Z.CTG (ISC-enriched organoids [3]; [18]): 0.328; Dose.FC.CTG (ISC-enriched organoids [3]; Dose 10.00 uM, primary screen): −0.169 log 2 fold change; Z.CTG (ISC-enriched organoids [3]; [19]): −0.404
